According to patent US20230141718A1, “METHODS OF TREATING GLIOBLASTOMA” (CELGENE QUANTICEL RESEARCH, INC., priority 2021, published 2023):
Values joined by “and” are separate entries in the source; they are usually repeats but may differ in a detail not shown here. Identical values can stand only once. Like-named read-outs stand apart in the source and are kept apart here.

Assays:
[1] = Plasma pharmacokinetics of Compound A, CC-90010-GBM-001 study; type: in vivo, human
Source text: The primary objectives of the study in this example were determination of tumor tissue concentration and plasma pharmacokinetics (PK) of Compound A. The secondary and exploratory objectives included safety, antitumor activity, cerebrospinal fluid concentration, and pharmacodynamics (PD).
The study described in this example (CC-90010-GBM-001 study/NCT04047303) enrolled patients with progressive or recurrent astrocytoma or recurrent glioblastoma who have failed radiation and chemotherapy, and who are candidates for surgical tumor resection as part of their salvage regimen.
Patients were treated with Compound A at 30 mg daily on Day 1 to Day 4 prior to undergoing indicated tumor resection and to maintain platelet count above the minimum of […] recommended for surgery (Part A, preoperative treatment). Following recovery from surgery and a minimum of 4 weeks from the first dose of Compound A, subjects who were fit to continue were treated with Compound A at 45 mg on a 4 days on/24 days off schedule (180 mg per 28-day cycle). Maintenance treatment continued until disease progression, unacceptable toxicity, or withdrawal of consent.
The blood PK, blood PD, tumor PK and tumor PD data were available for 20, 12, 20, and 11 patients, respectively.

[2] = Plasma pharmacokinetics of Compound A, CC-90010-GBM-002; type: in vivo, human; parameters: AUC / AUC(0-inf): concentration or dose not given beside the values; settings: for Cmax / AUC / AUC(0-inf): geometric mean; for tmax: median; for AUC: read-out: AUC24
Source text: The primary objectives of the study in this example were to establish the safety, maximum tolerated dose (MTD), and recommended phase 2 dose (RP2D) of Compound A. The preliminary efficacy, pharmacokinetics, and pharmacodynamics were also investigated.
The study described in this example (CC-90010-GBM-002/NCT04324840) is a phase 1B dose-finding study investigating standard of care of Compound A in combination with TMZ with or without radiotherapy (RT) in subjects with newly diagnosed GBM. Part A of the study is escalating the oral doses of Compound A in combination with adjuvant TMZ to estimate the MTD and/or the RP2D of Compound A as adjuvant therapy and escalating the oral doses of Compound A in combination with concomitant TMZ+radiotherapy (RT) to estimate the MTD and/or the RP2D of Compound A as concomitant therapy. Part B of the study is the safety and efficacy of Compound A administered at or below the MTD determined for the adjuvant therapy (AT) and concomitant therapy (CT).
For adjuvant therapy, Compound A and TMZ was administered for 6 cycles, then Compound A as a monotherapy was administered in 28-day cycles until disease progression, start of a new anticancer therapy, or withdrawal of consent or physician's decision. For adjuvant therapy, Compound A was administered at 15, 30, and 45 mg 4 days on/24 days off and TMZ was administered at 150 or 200 mg/m^2 QD Days 1-5, followed by Compound A at 45 mg 4 days on/24 days off. For adjuvant therapy, part B, Compound A was administered at RP2D and TMZ was administered at 150 or 200 mg/m^2, followed by Compound A at 45 mg 4 days on/24 days off.
For concomitant therapy, Compound A, TMZ, and RT were administered for 6 weeks, then 4-week break, followed by adjuvant Compound A and TMZ for 6 cycles then Compound A monotherapy in 28-day cycles until disease progression, start of a new anticancer therapy, withdrawal of consent or physician's decision. For concomitant therapy, part A, Compound A was administered at 15 mg or 30 mg QD Days 1-4 (weeks 1,5), TMZ was administered at 75 mg/m^2/day QD, and RT was administered at 2 Gy QD×5 days/week, for 42 days. This was then followed by a break in treatment therapy, e.g., from 1 to up to 4 weeks. Thereafter, adjuvant therapy was initiated by administering Compound A at 30 mg or 45 mg and TMZ at 150 or 200 mg/m^2 QD Days 1-5 of a 28-day cycle. Adjuvant therapy cycles were repeated from 2 to 6 times. After adjuvant therapy, was a monotherapy treatment. Monotherapy comprised administering Compound A at 45 mg 4 days on/24 days off.
Data presented as geometric mean (geometric CV %) for AUC and Cmax, mean (SD) for t1/2, and median (range) for tmax. AI AUC, accumulation index ratio of exposure measured at Day 4 to that after Day 1; AI Cmax, accumulation index ratio of maximum observed concentration at Day 4 to that after Day 1; AUC24, area under the concentration-time curve within a 24-hour dosing interval; Cmax, maximum observed concentration; NA, not applicable; t1/2, apparent terminal phase half-life.

[3] = human, plasma, oral, LD, Part A
[4] = human, plasma, oral, LD, Part B

Structure (SMILES): Cn1cc(-c2cc(S(C)(=O)=O)ccc2OCC2CC2)c2ccccc2c1=O [Compound A, 4-[2-(cyclopropylmethoxy)-5-methylsulfonylphenyl]-2-methylisoquinolin-1-one]
- GM AUC from 0 to 24 hours (AUC0-24) ([1]; C1D1, 30 mg daily): 5083 ng·h/mL
- Median tmax ([1]; C1D4): 1.9 h
- mean t1/2 ([1]; C1D4): 46 h
- GM AUC0-24 ([1]; C1D4, 30 mg daily): 11,250 ng h/mL
- geometric mean peak plasma concentration ([1]; Day 4): 1.90 µM
- median time to peak concentration ([1]; Day 4): 1.75 h
- geometric mean (GM) Cmax ([1]; cycle 1, day 1 (C1D1), 30 mg daily): 392 ng/mL
- GM Cmax ([1]; cycle 1, day 4 (C1D4), 30 mg daily): 720 ng/mL
- Exposure versus dose ([2]; 15, 30, 45 mg with TMZ): increased proportionally with dose
- Cmax ([2]; D1, GBM-002 (Part A) (n = 6)): 306 ng/mL
- tmax ([2]; D1, Part A): 2.0 h
- Day 4 time to peak Compound A concentration ([2]; Day 4): 0.5 to 2.0 h and 0.5 to 4.0 h
- Cmax ([2]; LD, GBM-002 (Part A) (n = 6)): 822 ng/mL
- T1/2 ([2]; LD, Part A, mean): 68 h
- tmax ([2]; LD, Part A): 1.5 h
- AI AUC24 (accumulation index ratio, Day 4 to Day 1) ([2]; Part A): 3.05
- AI Cmax (accumulation index ratio, Day 4 to Day 1) ([2]; Part A): 2.69
- AI AUC24 (accumulation index ratio, Day 4 to Day 1) ([2]; Part B): 2.61
- AI Cmax (accumulation index ratio, Day 4 to Day 1) ([2]; Part B): 2.11
- effect of coadministration with RT and TMZ on Compound A PK ([2]; Part B): did not appear to impact Compound A PK
- Cmax ([2]; human, plasma, oral, D1, GBM-002 (Part B) (n = 17), read-out: Cmax): 350 ng/mL
- AUC ([2]; human, plasma, oral, D1, Part A): 4580 ng·h/mL
- AUC ([2]; human, plasma, oral, D1, Part B): 4890 ng·h/mL
- Cmax ([2]; human, plasma, oral, LD, GBM-002 (Part B) (n = 17), read-out: Cmax): 740 ng/mL
- AUC(0-inf) [2, 3]: 49800 ng·h/mL
- AUC [2, 3]: 13900 ng·h/mL
- AUC(0-inf) [2, 4]: 48700 ng·h/mL
- AUC [2, 4]: 12700 ng·h/mL
- half-life ([2]; human, plasma, oral, LD, Part B, mean, read-out: T1/2 (converted)): 58 h
- half-life ([2]; human, plasma, oral, read-out: mean terminal half-life): 60 to 70 h
